Patent US20250163048A1 (Tango Therapeutics, Inc., priority 2022, published 2025)
Read-outs that look alike come from different tables or passages of the source.

Columns and labels:
MTAP-deleted cell line = assay: viability assay for the MTAP-deleted cell line; type: cell-based; settings: Homo sapiens, HAP1, viability assay
[1] = test system: HAP1 MTAP-intact cell line; assay: SDMA in-cell western assay, HAP1 MTAP-intact; settings: Homo sapiens
[2] = test system: HAP1 MTAP-deleted cell line; assay: SDMA in-cell western assay, HAP1 MTAP-deleted; settings: for IC50 / IC90: Homo sapiens; for Hap1 MTAP intact/deleted ratio: IC50 ratio between HAP1 MTAP-intact and HAP1 MTAP-deleted cell line
[3] = HAP1, read-out: Hap1 MTAP intact IC50, SDMA in-cell western assay, HAP1 MTAP-intact cell line
[4] = HAP1, read-out: Hap1 MTAP deleted IC50, SDMA in-cell western assay, HAP1 MTAP-deleted cell line
[5] = HAP1, read-out: Hap1 MTAP deleted IC90, SDMA in-cell western assay, HAP1 MTAP-deleted cell line
[6] = HAP1, read-out: Hap1 MTAP intact IC50, SDMA in-cell western, HAP1 MTAP-intact cell line
[7] = HAP1, read-out: Hap1 MTAP deleted IC50, SDMA in-cell western, HAP1 MTAP-deleted cell line
[8] = HAP1, read-out: Hap1 MTAP deleted IC90, SDMA in-cell western, HAP1 MTAP-deleted cell line
[9] = HAP1, read-out: Hap1 MTAP intact IC50

IC50 [1, 3] [nM]	IC50 [2, 4] [nM]	IC90 [2, 5] [nM]	IC50 [1, 6] [nM]	IC50 [2, 7] [nM]	IC90 [2, 8] [nM]	Structure (SMILES)	IC50 (MTAP-deleted cell line) [nM]	Hap1 MTAP intact/deleted ratio ([2]; SDMA in-cell western assay)	Hap1 MTAP intact/deleted ratio ([2]; SDMA in-cell western)	IC50 [1, 9] [nM]	IC50 ([2]; HAP1, read-out: Hap1 MTAP deleted IC50) [nM]	IC90 ([2]; HAP1, read-out: Hap1 MTAP deleted IC90) [nM]
> 50	5 to 50	> 125	–	–	–	C[C@@H]1CC[C@H](c2ccnn2C)N(C(=O)C(=O)Nc2cnc(N)c3cn[nH]c23)C1 (stereo in doubt) [Compound 272, N-(4-Amino-1H-pyrazolo[4,3-c]pyridin-7-yl)-2-oxo-2-[rac-(2R,5R)-5-methyl-2-(2-methylpyrazol-3-yl)-1-piperidyl]acetamide]	100 to 1000	B (“B” indicates an IC50 ratio greater than or equal to 15 fold but lower than 30 fold)	–	–	–	–
> 50	5 to 50	> 125	–	–	–	CCn1nccc1[C@H]1CC[C@@H](C)CN1C(=O)C(=O)Nc1cnc(N)c2cn[nH]c12 (stereo in doubt) [Compound 285, N-(4-Amino-1H-pyrazolo[4,3-c]pyridin-7-yl)-2-oxo-2-[rac-(2R,5R)-2-(2-ethylpyrazol-3-yl)-5-methyl-1-piperidyl]acetamide]	100 to 1000	A (“A” indicates an IC50 ratio greater than or equal to 30 fold)	–	–	–	–
–	–	–	5 to 50	< 5	< 75	C[C@H]1CC[C@H](c2ccc3sc(C4CCN(C)CC4)nc3c2)N(C(=O)C(=O)Nc2cnc(N)c3cnccc23)C1 [Compound 11, N-(1-amino-2,7-naphthyridin-4-yl)-2-((2R,5S)-5-methyl-2-(2-(1-methylpiperidin-4-yl)benzo[d]thiazol-5-yl)piperidin-1-yl)-2-oxoacetamide]	< 100	–	C (“C” indicates an IC50 ratio of less than 15 fold)	–	–	–
–	–	–	–	< 5	< 75	C[C@H]1CC[C@H](c2ccc3scnc3c2)N(C(=O)C(=O)Nc2cnc(N)c3cn[nH]c23)C1 [Compound 17, N-(4-amino-1H-pyrazolo[4,3-c]pyridin-7-yl)-2-[(2R,5S)-2-(1,3-benzothiazol-5-yl)-5-methyl-1-piperidyl]-2-oxo-acetamide]	< 100	–	–	5 to 50	–	–
–	–	–	5 to 50	< 5	< 75	CCN1CCC(c2nc3cc([C@H]4CC[C@H](C)CN4C(=O)C(=O)Nc4cncc5cn[nH]c45)ccc3s2)CC1 [Compound 37, 2-((2R,5S)-2-(2-(1-ethylpiperidin-4-yl)benzo[d]thiazol-5-yl)-5-methylpiperidin-1-yl)-2-oxo-N-(1H-pyrazolo[4,3-c]pyridin-7-yl)acetamide]	< 100	–	B (“B” indicates an IC50 ratio greater than or equal to 15 fold but lower than 30 fold)	–	–	–
–	–	–	> 50	5 to 50	> 125	C[C@H]1CC[C@H](c2ccc3sc(C4CN(C)CCO4)nc3c2)N(C(=O)C(=O)Nc2cncc3cn[nH]c23)C1 (stereo partly drawn) [Compound 39, 2-((2R,5S)-5-methyl-2-(2-(4-methylmorpholin-2-yl)benzo[d]thiazol-5-yl)piperidin-1-yl)-2-oxo-N-(1H-pyrazolo[4,3-c]pyridin-7-yl)acetamide]	< 100	–	B (“B” indicates an IC50 ratio greater than or equal to 15 fold but lower than 30 fold)	–	–	–
–	–	–	5 to 50	< 5	< 75	C[C@H]1CC[C@H](c2ccc3cn(C4CC(C)(C)N(C)C(C)(C)C4)nc3c2)N(C(=O)C(=O)Nc2cncc3cn[nH]c23)C1 [Compound 45, 2-oxo-N-(1H-pyrazolo[4,3-c]pyridin-7-yl)-2-[(2R,5S)-5-methyl-2-[2-(1,2,2,6,6-pentamethyl-4-piperidyl)indazol-6-yl]-1-piperidyl]acetamide]	< 100	–	B (“B” indicates an IC50 ratio greater than or equal to 15 fold but lower than 30 fold)	–	–	–
–	–	–	5 to 50	< 5	< 75	C[C@H]1CC[C@H](c2ccc3nn(C4CC(C)(C)N(C)C(C)(C)C4)cc3c2)N(C(=O)C(=O)Nc2cncc3cn[nH]c23)C1 [Compound 47, 2-oxo-N-(1H-pyrazolo[4,3-c]pyridin-7-yl)-2-[(2R,5S)-5-methyl-2-[2-(1,2,2,6,6-pentamethyl-4-piperidyl)indazol-5-yl]-1-piperidyl]acetamide]	< 100	–	B (“B” indicates an IC50 ratio greater than or equal to 15 fold but lower than 30 fold)	–	–	–

The remaining lines, values behind:

Structure (SMILES)	IC50 [1, 3] [nM]	IC50 [2, 4] [nM]	IC90 [2, 5] [nM]	IC50 [1, 6] [nM]	IC50 [2, 7] [nM]	IC90 [2, 8] [nM]	IC50 (MTAP-deleted cell line) [nM]	Hap1 MTAP intact/deleted ratio ([2]; SDMA in-cell western assay)	Hap1 MTAP intact/deleted ratio ([2]; SDMA in-cell western)	IC50 [1, 9] [nM]	IC50 ([2]; HAP1, read-out: Hap1 MTAP deleted IC50) [nM]	IC90 ([2]; HAP1, read-out: Hap1 MTAP deleted IC90) [nM]
C[C@H]1CC[C@H](c2cc(F)c(F)c(F)c2)N(C(=O)C(=O)Nc2cnc(N)c3cn[nH]c23)C1 [Compound 18, N-(4-amino-1H-pyrazolo[4,3-c]pyridin-7-yl)-2-((2R,5S)-5-methyl-2-(3,4,5-trifluorophenyl)piperidin-1-yl)-2-oxoacetamide]	–	–	–	> 50	< 5	< 75	< 100	–	A (“A” indicates an IC50 ratio greater than or equal to 30 fold)	–	–	–
C[C@H]1CC[C@H](c2ccc3sc(C4(O)CCN(C)CC4)nc3c2)N(C(=O)C(=O)Nc2cncc3cn[nH]c23)C1 [Compound 19, 2-((2R,5S)-2-(2-(4-hydroxy-1-methylpiperidin-4-yl)benzo[d]thiazol-5-yl)-5-methylpiperidin-1-yl)-2-oxo-N-(1H-pyrazolo[4,3-c]pyridin-7-yl)acetamide]	–	–	–	–	–	–	< 100	–	C (“C” indicates an IC50 ratio of less than 15 fold)	5 to 50	< 5	< 75
CC(CN(C)C)c1nc2cc([C@H]3CC[C@H](C)CN3C(=O)C(=O)Nc3cncc4cn[nH]c34)ccc2s1 (stereo partly drawn) [Compound 21, 2-((2R,5S)-2-(2-(1-(dimethylamino)propan-2-yl)benzo[d]thiazol-5-yl)-5-methylpiperidin-1-yl)-2-oxo-N-(1H-pyrazolo[4,3-c]pyridin-7-yl)acetamide]	–	–	–	5 to 50	< 5	< 75	< 100	–	C (“C” indicates an IC50 ratio of less than 15 fold)	–	–	–
C[C@H]1CC[C@H](c2cccc(N3CCN(C)CC3)c2)N(C(=O)C(=O)Nc2cnc(N)c3cn[nH]c23)C1 [Compound 25, N-(4-amino-1H-pyrazolo[4,3-c]pyridin-7-yl)-2-((2R,5S)-5-methyl-2-(3-(4-methylpiperazin-1-yl)phenyl)piperidin-1-yl)-2-oxoacetamide]	–	–	–	5 to 50	< 5	< 75	< 100	–	C (“C” indicates an IC50 ratio of less than 15 fold)	–	–	–
C[C@H]1CC[C@H](c2ccc3scnc3c2)N(C(=O)C(=O)Nc2cncc3cn[nH]c23)C1 [Compound 26, 2-((2R,5S)-2-(benzo[d]thiazol-5-yl)-5-methylpiperidin-1-yl)-2-oxo-N-(1H-pyrazolo[4,3-c]pyridin-7-yl)acetamide]	–	–	–	–	5 to 50	> 125	100 to 1000	–	A (“A” indicates an IC50 ratio greater than or equal to 30 fold)	> 50	–	–
C[C@H]1CC[C@H](c2ccc3nn([C@@H]4CCN(C)C4)cc3c2)N(C(=O)C(=O)Nc2cncc3cn[nH]c23)C1 [Compound 36, 2-oxo-N-(1H-pyrazolo[4,3-c]pyridin-7-yl)-2-[(2R,5S)-5-methyl-2-[2-[(3R)-1-methylpyrrolidin-3-yl]indazol-5-yl]-1-piperidyl]acetamide]	–	–	–	> 50	< 5	75 to 125	100 to 1000	–	A (“A” indicates an IC50 ratio greater than or equal to 30 fold)	–	–	–
C[C@H]1CC[C@H](c2ccc3ccc(C4CCN(C)CC4)nc3c2)N(C(=O)C(=O)Nc2cncc3cn[nH]c23)C1 [Compound 42, 2-((2R,5S)-5-methyl-2-(2-(1-methylpiperidin-4-yl)quinolin-7-yl)piperidin-1-yl)-2-oxo-N-(1H-pyrazolo[4,3-c]pyridin-7-yl)acetamide]	–	–	–	> 50	< 5	< 75	< 100	–	A (“A” indicates an IC50 ratio greater than or equal to 30 fold)	–	–	–
C[C@H]1CC[C@H](c2ccc3sc(C4CC(C)(C)N(C)C(C)(C)C4)nc3c2)N(C(=O)C(=O)Nc2cncc3c(N)nccc23)C1 [Compound 46, N-(8-amino-2,7-naphthyridin-4-yl)-2-((2R,5S)-5-methyl-2-(2-(1,2,2,6,6-pentamethylpiperidin-4-yl)benzo[d]thiazol-5-yl)piperidin-1-yl)-2-oxoacetamide]	–	–	–	> 50	< 5	< 75	< 100	–	A (“A” indicates an IC50 ratio greater than or equal to 30 fold)	–	–	–
C[C@H]1CC[C@H](c2ccc3sc(CN(C)C)nc3c2)N(C(=O)C(=O)Nc2cncc3[nH]ncc23)C1 [Compound 49, 2-((2R,5S)-2-(2-((dimethylamino)methyl)benzo[d]thiazol-5-yl)-5-methylpiperidin-1-yl)-2-oxo-N-(1H-pyrazolo[3,4-c]pyridin-4-yl)acetamide]	–	–	–	> 50	5 to 50	75 to 125	100 to 1000	–	B (“B” indicates an IC50 ratio greater than or equal to 15 fold but lower than 30 fold)	–	–	–
